Where two headings read alike, the source gives them in different places.
Columns and labels:
[1] = logP by HPLC on reversed-phase columns (C 18), EEC Directive 79/831 Annex V.A8; format: physicochemical
Description: The logP values reported in the table above and in the Preparation Examples were determined in accordance with EEC Directive 79/831 Annex V.A8 by HPLC (High Performance Liquid Chromatography) on reversed-phase columns (C 18), with the following methods:
The LC-MS determination in the acidic range is carried out at pH 2.7 using the mobile phases 0.1% aqueous formic acid and acetonitrile (contains 0.1% formic acid), linear gradient from 10% acetonitrile to 95% acetonitrile
Calibration was carried out using unbranched alkan-2-ones (having from 3 to 16 carbon atoms) with known logP values (the logP values were determined by the retention times using linear interpolation between two successive alkanones).

[2] = system: green peach aphid (Myzus persicae); test: Myzus test (MYZUPE spray treatment); format: in vivo; conditions: 144 h, sprayed Chinese cabbage discs, after 6 days, read-out: activity (kill of aphids)
Description: Myzus Test (MYZUPE Spray Treatment)
Solvents: 78 parts by weight of acetone
(§1) • 1.5 parts by weight of dimethylformamide Emulsifier: 0.5 part by weight of alkylaryl polyglycol ether
(§2) To produce a suitable preparation of active compound, 1 part by weight of active compound is mixed with the stated amount of solvents and emulsifier, and the concentrate is diluted with emulsifier-containing water to the desired concentration.
Discs of Chinese cabbage (Brassica pekinensis) infested by all stages of the green peach aphid (Myzus persicae) are sprayed with an active compound preparation of the desired concentration.
After 6 days, the effect in % is determined. 100% means that all of the aphids have been killed; 0% means that none of the aphids have been killed.

[3] = system: larvae of the mustard beetle (Phaedon cochleariae); test: Phaedon test (PHAECO spray treatment); format: in vivo; conditions: 168 h, read-out: activity (kill of beetle larvae)
Description: Phaedon Test ([…] Spray Treatment) Solvents: 78.0 parts by weight of acetone • • 1.5 parts by weight of dimethylformamide Emulsifier: 0.5 part by weight of alkylaryl polyglycol ether To produce a suitable preparation of active compound, 1 part by weight of active compound is mixed with the stated amount of solvents and emulsifier, and the concentrate is diluted with emulsifier-containing water to the desired concentration. Discs of Chinese cabbage (Brassica pekinensis) are sprayed with an active compound preparation of the desired concentration and, after drying, populated with larvae of the mustard beetle (Phaedon cochleariae).

[4] = system: caterpillars of the armyworm (Spodoptera frugiperda); test: Spodoptera frugiperda test (SPODFR spray treatment); format: in vivo; conditions: foliar, 168 h, read-out: activity (kill of caterpillars)
Description: Spodoptera frugiperda Test (SPODFR Spray Treatment)
Solvents: 78.0 parts by weight of acetone
as §1, §2
Discs of maize leaves (Zea mays) are sprayed with an active compound preparation of the desired concentration and, after drying, populated with caterpillars of the armyworm (Spodoptera frugiperda).
After 7 days, the effect in % is determined. 100% means that all caterpillars have been killed; 0% means that none of the caterpillars have been killed.

[5] = system: Lucilia cuprina larvae; test: Lucilia cuprina test (LUCICU); format: in vivo; conditions: 100 ppm, treated horse meat, after 2 days
Description: Lucilia cuprina Test (LUCICU)
(§3) Solvent: dimethyl sulphoxide
(§4) To produce a suitable preparation of active compound, 10 mg of active compound are mixed with 0.5 ml of dimethyl sulphoxide and the concentrate is diluted with water to the desired concentration.
Vessels containing horse meat treated with the active compound of the desired concentration are populated with about 20 Lucilia cuprina larvae.
After 2 days, the kill in % is determined 100% means that all of the larvae have been killed; 0% means that none of the larvae have been killed.

[6] = system: adult Musca domestica; test: Musca domestica test (MUSCDO); format: in vivo; conditions: 100 ppm, treated sponge, after 2 days
Description: Musca domestica Test (MUSCDO)
as §3, §4
Vessels containing a sponge treated with the active compound preparation of the desired concentration are populated with adult Musca domestica.
After 2 days, the kill in % is determined 100% means that all of the flies have been killed; 0% means that none of the flies have been killed.

[7] = HPLC, reversed-phase C 18, acidic range pH 2.7, 0.1% aqueous formic acid/acetonitrile, read-out: log P
[8] = 100 g/ha, sprayed Chinese cabbage discs, after 7 days
[9] = 100 g/ha, sprayed maize leaf discs, after 7 days
[10] = reversed-phase C18 HPLC column, HPLC, reversed-phase C 18, acidic range pH 2.7, 0.1% aqueous formic acid/acetonitrile, read-out: log P

| SMILES | chromatographic logP [1, 10] | pest or weed control at 100 g/ha [3, 8] [%] | pest or weed control at 100 g/ha [4, 9] [%] | further results |
| --- | --- | --- | --- | --- |
| Cc1cc(Br)cc(OC(F)F)c1N | – | – | – | chromatographic logP [1, 7]: 2.84 |
| Cc1cc(C#N)cc(OC(F)F)c1N | – | – | – | chromatographic logP [1, 7]: 1.9 |
| Cc1cccc(C(=O)NS(C)(=O)=O)c1N | – | – | – | chromatographic logP [1, 7]: 1.1 |
| Cc1cc(Cl)cc(C(=O)NS(=O)(=O)N(C)C)c1NC(=O)c1cc(Cn2cc(C(F)(F)C(F)(F)F)cn2)nn1-c1ncccc1Cl [Compound 1] | – | – | – | chromatographic logP ([1]; pH 2.7): 3.35 |
| Cc1cc(I)cc(C(=O)O)c1NC(=O)c1cc(Cn2nnc(C(F)(F)C(F)(F)F)n2)nn1-c1ncccc1Br [Compound 2] | 3.69 | 100 | 100 | pest or weed control at 100 g/ha [2]: 80% |
| Cc1cc(F)cc(C(=O)O)c1NC(=O)c1cc(Cn2nnc(C(F)(F)C(F)(F)F)n2)nn1-c1ncccc1Br [Compound 3] | 3.16 | – | 100 | – |
| Cc1cc(I)cc(C(=O)NS(C)(=O)=O)c1NC(=O)c1cc(Cn2nnc(C(F)(F)C(F)(F)F)n2)nn1-c1ncccc1Br [Compound 4] | 3.39 | – | – | – |
| Cc1cccc(C(=O)NS(C)(=O)=O)c1NC(=O)c1cc(Cn2nnc(C(F)(F)F)n2)nn1-c1ncccc1Cl [Compound 5] | – | – | – | pest or weed control at 100 g/ha ([4]; in Zea mays): 100%; chromatographic logP ([1]; pH 2.7): 2.47 |
| Cc1cc(Br)cc(OC(F)F)c1NC(=O)c1cc(Cn2nnc(C(F)(F)F)n2)nn1-c1ncccc1Cl [Compound 8] | 3.77 | 100 | 100 | efficacy (kill) [5]: 100% |
| Cc1cc(C#N)cc(OC(F)F)c1NC(=O)c1cc(Cn2nnc(C(F)(F)F)n2)nn1-c1ncccc1Cl [Compound 9] | 2.85 | 100 | 100 | pest or weed control at 100 g/ha [2]: 90%; efficacy (kill) [6]: 80%; efficacy (kill) [5]: 100% |
| Cc1cc(Cl)cc(OC(F)(F)F)c1NC(=O)c1cc(Cn2nnc(C(F)(F)F)n2)nn1-c1ncccc1Cl [Compound 10] | 4 | – | 100 | – |
| COC(=O)c1cc(I)cc(C)c1NC(=O)c1cc(Cn2nc(C(F)(F)F)cc2C(F)(F)F)nn1-c1ncccc1Cl [Compound 11] | 4.57 | – | – | – |
| O=C(O)c1cc(Cl)cc(Cl)c1NC(=O)c1cc(Cn2cnc(C(F)F)n2)nn1-c1ncccc1Cl [Compound 12] | 2.2 | – | – | pest or weed control at 500 g/ha ([3]; 500 g/ha, sprayed Chinese cabbage discs, after 7 days): 100%; efficacy (kill) [5]: 90%; pest or weed control at 500 g/ha ([4]; 500 g/ha, sprayed maize leaf discs, after 7 days): 100% |
| Cc1cc(C#N)cc(C(=O)O)c1NC(=O)c1cc(Cn2nnc(C(F)(C(F)(F)F)C(F)(F)F)n2)nn1-c1ncccc1Cl [Compound 13] | 3.36 | 100 | 100 | pest or weed control at 100 g/ha [2]: 80% |
| Cc1cc(C#N)cc(C(=O)O)c1NC(=O)c1cc(Cn2nnc(C(F)(F)F)n2)nn1-c1ncccc1Cl [Compound 14] | 2.65 | – | 100 | pest or weed control at 100 g/ha [2]: 80% |
| O=C(O)c1cc(Cl)cc(Cl)c1NC(=O)c1cc(Cn2nc(C(F)(F)C(F)(F)C(F)(F)F)cc2C(F)(F)F)nn1-c1ncccc1Cl [Compound 15] | – | – | – | pest or weed control at 100 g/ha ([3]; in Brassica rapa): 83%; chromatographic logP [1, 7]: 4.4 |

Now from value to compound, other results behind:

| chromatographic logP [1, 10] | SMILES | pest or weed control at 100 g/ha [3, 8] [%] | pest or weed control at 100 g/ha [4, 9] [%] | further results |
| --- | --- | --- | --- | --- |
| 2.63 | Cc1cc(C#N)cc(C(=O)O)c1NC(=O)c1cc(Cn2cnc(C(F)(F)F)c2C(F)(F)F)nn1-c1ncccc1Cl [Compound 16] | 100 | – | – |
| 3.16 | Cc1cc(Cl)cc(C(=O)O)c1NC(=O)c1cc(Cn2nc(C)c(Br)c2C)nn1-c1ncccc1Cl [Compound 17] | – | – | – |
| 2.62 | Cc1cc(C#N)cc(C(=O)O)c1NC(=O)c1cc(Cn2nc(C(F)F)cc2C(F)F)nn1-c1ncccc1Cl [Compound 18] | – | – | – |
| 2.68 | Cc1nc(C(F)(F)F)nn1Cc1cc(C(=O)Nc2c(Cl)cc(Cl)cc2C(=O)O)n(-c2ncccc2Cl)n1 [Compound 19] | – | – | pest or weed control at 100 g/ha [2]: 80% |
| 2.75 | Cc1cc(F)cc(C(=O)O)c1NC(=O)c1cc(Cn2nnc(C(F)(F)F)n2)nn1-c1ncccc1Cl [Compound 20] | – | – | – |
| 3.04 | O=C(O)c1cc(Cl)cc(Cl)c1NC(=O)c1cc(Cn2nnc(C(F)(F)F)n2)nn1-c1ncccc1Cl [Compound 21] | 100 | 83 | – |
| 3.44 | Cc1cc(Cl)cc(C(=O)O)c1NC(=O)c1cc(Cn2nnc(C(F)(F)C(F)(F)F)n2)nn1-c1ncccc1Cl [Compound 22] | 100 | – | – |
| 3.37 | O=C(O)c1cc(Cl)cc(Cl)c1NC(=O)c1cc(Cn2nnc(C(F)(F)C(F)(F)F)n2)nn1-c1ncccc1Cl [Compound 23] | 100 | – | – |
| 2.55 | O=C(O)c1cc(Cl)cc(Cl)c1NC(=O)c1cc(Cn2nnc(C(F)F)n2)nn1-c1ncccc1Cl [Compound 25] | – | – | – |
| 3.03 | O=C(O)c1cc(Cl)cc(Cl)c1NC(=O)c1cc(Cn2ncc(C(F)(F)F)n2)nn1-c1ncccc1Cl [Compound 26] | 100 | 100 | pest or weed control at 100 g/ha [2]: 90% |
| 3.26 | Cc1cc(I)cc(C(=O)O)c1NC(=O)c1cc(Cn2ncc(C(F)(F)F)n2)nn1-c1ncccc1Cl [Compound 27] | – | 83 | – |
| 2.69 | O=C(O)c1cc(Cl)cc(Cl)c1NC(=O)c1cc(Cn2cc(C(F)(F)F)nn2)nn1-c1ncccc1Cl [Compound 28] | 100 | – | pest or weed control at 100 g/ha [2]: 100% |
| 3.33 | COC(=O)c1cc(F)cc(C)c1NC(=O)c1cc(Cn2nnc(C(F)(F)F)n2)nn1-c1ncccc1Cl [Compound 29] | 83 | 100 | – |
| 3.05 | Cc1cc(Cl)cc(C(=O)O)c1NC(=O)c1cc(Cn2nnc(C(F)(F)F)n2)nn1-c1ncccc1Cl [Compound 30] | – | 83 | pest or weed control at 100 g/ha [2]: 80% |
| 3.75 | Cc1cc(C#N)cc(C(=S)NC(C)(C)C)c1NC(=O)c1cc(Cn2nnc(C(F)(F)F)n2)nn1-c1ncccc1Cl [Compound 31] | 100 | 83 | pest or weed control at 100 g/ha [2]: 90% |
| 2.56 | Cc1cccc(S(N)(=O)=O)c1NC(=O)c1cc(Cn2nnc(C(F)(F)F)n2)nn1-c1ncccc1Cl [Compound 32] | – | – | – |
| 2.9 | CNS(=O)(=O)c1cccc(C)c1NC(=O)c1cc(Cn2nnc(C(F)(F)F)n2)nn1-c1ncccc1Cl [Compound 33] | – | – | – |
| 3.35 | CCC(=O)c1cccc(C)c1NC(=O)c1cc(Cn2nnc(C(F)(F)F)n2)nn1-c1ncccc1Cl [Compound 34] | – | – | – |
| 3.33 | Cc1cccc(C(=O)C2CC2)c1NC(=O)c1cc(Cn2nnc(C(F)(F)F)n2)nn1-c1ncccc1Cl [Compound 35] | – | 100 | – |
| 3.73 | CNC(=S)c1cc(I)cc(C)c1NC(=O)c1cc(Cn2nnc(C(F)(F)F)n2)nn1-c1ncccc1Cl [Compound 36] | 100 | 100 | pest or weed control at 100 g/ha [2]: 100% |

From patent US8658800B2 (priority 2010, dated 2014)
